Data taken from ChEMBL document CHEMBL1122943, “Cardiotonic agents. 2. Synthesis and structure-activity relationships of 4,5-dihydro-6-[4-(1H-imidazol-1-yl)phenyl]-3(2H)-pyridazinones: a new class of positive inotropic agents” (1985).

Experiments:
[1] = test system: Canis familiaris; test: Compound was evaluated for 50% increase of myocardial contractility in a conscious dog model orally administered.; assay type: functional, Canis lupus familiaris, Myocardium
[2] = test system: Canis familiaris; test: Percent increase in contractility was evaluated by effect of Cardiotonic agents on myocardial contractility in conscious dog administered orally at dose of 0.31 mg/kg; Value ranges from (10-20); assay type: functional, Canis lupus familiaris, Myocardium; conditions: route oral
[3] = test system: Canis familiaris; test: Cardiovascular activity(blood pressure) (0.31 mg/kg) in dog before beta-blockade.; assay type: functional, Canis lupus familiaris
[4] = test system: Canis familiaris; test: Percent increase in heart rate was evaluated by effect of Cardiotonic agents on myocardial contractility in conscious dog administered orally at dose of 0.31 mg/kg; Value ranges from(10-15); assay type: functional, Canis lupus familiaris; conditions: route oral
[5] = test system: Canis familiaris; test: Cardiovascular activity (contractility) (0.31 mg/kg) in dog after beta-blockade; assay type: functional, Canis lupus familiaris
[6] = test system: Canis familiaris; test: Cardiovascular activity(blood pressure) (0.31 mg/kg) in dog after beta-blockade; assay type: functional, Canis lupus familiaris
[7] = test system: Canis familiaris; test: Compound was evaluated for 40-60% increase of myocardial contractility in a conscious dog model orally administered.; assay type: functional, Canis lupus familiaris, Myocardium
[8] = test system: Canis familiaris; test: Evaluated for 50% increase of myocardial contractility in anesthetized dog, administered intravenously; assay type: functional, Canis lupus familiaris, Myocardium
[9] = test system: Canis familiaris; test: Percent increase in contractility was evaluated by effect of Cardiotonic agents on myocardial contractility in conscious dog administered orally at dose of 1.0 mg/kg; assay type: functional, Canis lupus familiaris, Myocardium; conditions: route oral
[10] = test system: Canis familiaris; test: Cardiovascular activity (contractility) (0.31 mg/kg) in dog before beta-blockade.; assay type: functional, Canis lupus familiaris
[11] = test system: Canis familiaris; test: Cardiovascular activity(heart rate) (0.31 mg/kg) in dog before beta-blockade; assay type: functional, Canis lupus familiaris
[12] = test system: Canis familiaris; test: Cardiovascular activity(heart rate) (0.31 mg/kg) in dog after beta-blockade; assay type: functional, Canis lupus familiaris
[13] = test system: Canis familiaris; test: Percent increase in heart rate was evaluated by effect of Cardiotonic agents on myocardial contractility in conscious dog administered orally at dose of 1.0 mg/kg; assay type: functional, Canis lupus familiaris; conditions: route oral
[14] = test system: Canis familiaris; test: Compound was evaluated for 40-60% increase of myocardial contractility in a conscious dog model orally administered; assay type: functional, Canis lupus familiaris, Myocardium
[15] = test system: Canis familiaris; test: Percent increase in heart rate was evaluated by effect of Cardiotonic agents on myocardial contractility in conscious dog administered orally at dose of 10 mg/kg; assay type: functional, Canis lupus familiaris; conditions: route oral
[16] = test system: Canis familiaris; test: Percent increase in contractility was evaluated by effect of Cardiotonic agents on myocardial contractility in conscious dog administered orally at dose of 10 mg/kg; assay type: functional, Canis lupus familiaris, Myocardium; conditions: route oral
[17] = test system: Canis familiaris; test: Percent increase in contractility was evaluated by effect of Cardiotonic agents on myocardial contractility in conscious dog administered orally at dose of 0.1 mg/kg; assay type: functional, Canis lupus familiaris, Myocardium; conditions: route oral
[18] = test system: Canis familiaris; test: Percent increase in heart rate was evaluated by effect of Cardiotonic agents on myocardial contractility in conscious dog administered orally at dose of 0.1 mg/kg; Value is not statistically significant.; assay type: functional, Canis lupus familiaris; conditions: route oral
[19] = test system: Canis familiaris; test: Percent increase in contractility was evaluated by effect of Cardiotonic agents on myocardial contractility in conscious dog administered orally at dose of 0.31 mg/kg; assay type: functional, Canis lupus familiaris, Myocardium; conditions: route oral
[20] = test system: Canis familiaris; test: Percent increase in heart rate was evaluated by effect of Cardiotonic agents on myocardial contractility in conscious dog administered orally at dose of 0.31 mg/kg; assay type: functional, Canis lupus familiaris; conditions: route oral
[21] = test system: Canis familiaris; test: Cardiovascular activity (contractility) (0.31 ug/kg) in dog before beta-blockade.; assay type: functional, Canis lupus familiaris
[22] = test system: Canis familiaris; test: Cardiovascular activity (blood pressure) (0.31 ug/kg) in dog before beta-blockade; assay type: functional, Canis lupus familiaris
[23] = test system: Canis familiaris; test: Cardiovascular activity (blood pressure) (0.31 ug/kg)in dog after beta-blockade; assay type: functional, Canis lupus familiaris
[24] = test system: Canis familiaris; test: Cardiovascular activity (contractility) (0.31 ug/kg) in dog after beta-blockade; assay type: functional, Canis lupus familiaris
[25] = test system: Canis familiaris; test: Cardiovascular activity (heart rate) (0.31 ug/kg) in dog before beta-blockade; assay type: functional, Canis lupus familiaris
[26] = test system: Canis familiaris; test: Cardiovascular activity (heart rate) (0.31 ug/kg) in dog after beta-blockade.; assay type: functional, Canis lupus familiaris
[27] = test system: Canis familiaris; test: Compound was evaluated for 40-60% increase of myocardial contractility in a conscious dog model perorally administered; assay type: functional, Canis lupus familiaris, Myocardium
[28] = test system: Canis familiaris; test: Percent increase in heart rate was evaluated by effect of Cardiotonic agents on myocardial contractility in conscious dog administered orally at dose of 3.1 mg/kg; assay type: functional, Canis lupus familiaris; conditions: route oral
[29] = test system: Canis familiaris; test: Percent increase in contractility was evaluated by effect of Cardiotonic agents on myocardial contractility in conscious dog administered orally at dose of 3.1 mg/kg; assay type: functional, Canis lupus familiaris, Myocardium; conditions: route oral

`O=C1CCC(c2cccc(-n3ccnc3)c2)=NN1` gave a Dose [1] of over 1 mg/kg.
Work on `O=C1CCC(c2ccc(-n3ccnc3)cc2)=NN1` [IMAZODAN] yielded an Increase [2] of 10%, a Change [3] of -4.2% and an Increase [4] of 10%. The Change [5] was 62.4%, the Change [6] was -2.8% and the Dose [7] was 1 mg/kg. It also gave a Dose [8] of 0.045 mg/kg, an Increase [9] of 40% and a Change [10] of 82%. It also gave a Change [11] of 24%, a Change [12] of 5.4% and an Increase [13] of 29%.
`CC1CC(c2ccc(-n3ccnc3)cc2)=NNC1=O` (stereo not drawn) was tested, and the Dose [8] was 1 mg/kg.
`O=C1CCC(c2ccc(-n3cnnc3)cc2)=NN1` gave a Dose [14] of over 3.1 mg/kg.
Molecule `COc1cc([S+](C)[O-])ccc1-c1nc2cccnc2[nH]1` (stereo not drawn) [SULMAZOLE] has an Increase [15] of 61%, an Increase [16] of 57% and a Dose [8] of 0.435 mg/kg.
`Cc1cc(O)nnc1-c1ccc(-n2ccnc2)cc1` gave a Dose [8] of over 1 mg/kg.
`O=C1CCC(c2ccc(-n3cccn3)cc2)=NN1` was tested, and the Dose [7] was over 3.1 mg/kg.
In the case of `CC1CC(O)=NN=C1c1ccc(-n2ccnc2)cc1` (stereo not drawn) [CI-930], the Increase [17] is reported as 42%, the Increase [18] is reported as 34% and the Increase [19] is reported as 70%. It also gave a Dose [7] of 0.1 mg/kg, a Dose [8] of 0.013 mg/kg and an Increase [20] of 49%.
`O=C1CCC(c2ccc(-n3ccnc3S)cc2)=NN1` gave a Dose [7] of over 10 mg/kg.
For `NNC(=O)c1cc(-c2ccc(-n3ccnc3)cc2)nnc1O`, the Dose [8] was 1 mg/kg.
For `O=C1NN=C(c2ccc(-n3ccnc3)cc2)C2CCCCC12` (stereo not drawn), the Dose [8] was 1 mg/kg.
In the case of `O=C1CCC(c2ccc(-n3cncn3)cc2)=NN1`, the Dose [14] is reported as 1 mg/kg.
`Cc1cc(O)nnc1-c1ccc(-n2cnc3c2CCCC3)cc1` gave a Dose [8] of over 0.1 mg/kg.
`CC(=O)OCCN1N=C(c2ccc(-n3ccnc3)cc2)CCC1=O` showed a Dose [8] of over 1 mg/kg.
With `CCc1nc(C)c(Br)n1-c1ccc(-c2ccc(O)nn2)cc1` the Dose [8] was 0.2 mg/kg.
In the case of `CN1N=C(c2ccc(-n3ccnc3)cc2)CCC1=O`, the Dose [8] is reported as over 1 mg/kg.
`O=C1CCC(c2ccc(-n3ccnc3)cc2)=NN1Cc1ccccc1` gave a Dose [14] of 10 mg/kg.
`CCC1CC(=O)NN=C1c1ccc(-n2ccnc2)cc1` (stereo not drawn) gave a Dose [8] of 1 mg/kg.
`CC(C)NCC(O)c1ccc(O)c(O)c1` (stereo not drawn) [ISOPROTERENOL] showed a Change [21] of 96%, a Change [22] of -6.6% and a Change [23] of 1%. It also gave a Change [24] of 10.4%, a Change [25] of 31% and a Change [26] of 0.4%.
With `Cc1nccn1-c1ccc(C2=NNC(=O)CC2)cc1` the Dose [8] was 0.3 mg/kg and the Dose [27] was 1 mg/kg.
In the case of `Oc1ccc(-c2cccc(-n3ccnc3)c2)nn1`, the Dose [8] is reported as 0.2 mg/kg.
Molecule `O=C1CCC(c2ccc(-n3cnc(CO)c3)cc2)=NN1` has a Dose [8] of 0.034 mg/kg.
`Oc1ccc(-c2ccc(-n3ccnc3)cc2)nn1` was tested, and the Dose [8] was 0.1 mg/kg.
Molecule `NC(=O)c1cc(-c2ccc(-n3ccnc3)cc2)nnc1O` has a Dose [8] of over 1 mg/kg.
`Cc1cc(-c2ccc(-n3ccnc3)cc2)nnc1O` showed a Dose [8] of 0.3 mg/kg.
Work on `CS(=O)(=O)c1nccn1-c1ccc(C2=NNC(=O)CC2)cc1` yielded a Dose [14] of over 1 mg/kg.
Work on `O=c1ccc(-c2ccc(-n3ccnc3)cc2)nn1CCO` yielded a Dose [8] of over 1 mg/kg.
In the case of `CCc1nc(C)cn1-c1ccc(-c2ccc(O)nn2)cc1`, the Dose [8] is reported as 0.3 mg/kg.
Work on `O=C1CCC(c2ccc(-n3cnc4c3CCCC4)cc2)=NN1` yielded a Dose [14] of over 1 mg/kg and a Dose [8] of 0.064 mg/kg.
In the case of `CCc1nc(C)cn1-c1ccc(C2=NNC(=O)CC2)cc1`, the Dose [14] is reported as under 3.1 mg/kg and the Dose [8] is reported as 0.1 mg/kg.
For `CC1CC(=O)NN=C1c1ccc(-n2cnc3c2CCCC3)cc1` (stereo not drawn) [TETRAHYDROBENXIMIDAZOLE], the Dose [14] was 0.3 mg/kg and the Dose [8] was 0.02 mg/kg.
`Nc1cc(-c2ccc(-n3ccnc3)cc2)nnc1O` gave a Dose [8] of 0.3 mg/kg.
In the case of `Cc1nccn1-c1ccc(-c2ccc(O)nn2)cc1`, the Dose [8] is reported as 0.1 mg/kg.
`O=C(O)c1cc(-c2ccc(-n3ccnc3)cc2)nnc1O` was tested, and the Dose [8] was over 1 mg/kg.
In the case of `C[S+]([O-])c1nccn1-c1ccc(C2=NNC(=O)CC2)cc1` (stereo not drawn), the Dose [14] is reported as 10 mg/kg and the Dose [8] is reported as 0.3 mg/kg.
For `CSc1ccc(C(=O)c2[nH]c(=O)[nH]c2C)cc1` [ENOXIMONE], the Dose [8] was 0.283 mg/kg.
With `Cc1[nH]c(=O)c(C#N)cc1-c1ccncc1` [MILRINONE] the Dose [8] was 0.037 mg/kg, the Increase [9] was 45% and the Increase [13] was 60%.
`Cn1nc(-c2ccc(-n3ccnc3)cc2)ccc1=O` gave a Dose [8] of over 1 mg/kg.
In the case of `CSc1nccn1-c1ccc(C2=NNC(=O)CC2)cc1`, the Dose [27] is reported as 10 mg/kg.
`Nc1cc(-c2ccncc2)c[nH]c1=O` [INAMRINONE] was tested, and the Increase [28] was 23%, the Increase [15] was 18% and the Increase [16] was 45%. The Dose [8] was 0.389 mg/kg and the Increase [29] was 6%.
Molecule `O=C1CCC(c2ccc(-n3cccc3)cc2)=NN1` has a Dose [14] of 10 mg/kg.
In the case of `Oc1ccc(-c2ccc(-n3cnc4c3CCCC4)cc2)nn1`, the Dose [8] is reported as 0.1 mg/kg.
Work on `O=C1CCC(c2ccc(-n3cnc4ccccc43)cc2)=NN1` yielded a Dose [14] of 3.1 mg/kg and a Dose [8] of 0.1 mg/kg.
